Measurements taken from patent US11981658B2, “Substituted aminopyridine compounds as EGFR inhibitors” (YUHAN CORPORATION, priority 2021, dated 2024).
Where two headings read alike, the source gives them in different places.

Columns and labels:
EGFR Del19/T790M/C797S = EGFR Del19/T790M/C797S (Homo sapiens, UniProt P00533, C797S/DEL746-750/T790M); assay: Biochemical EGFR kinase inhibition assay (Lance Ultra TR-FRET), triple mutant del19/T790M/C797S
Method in brief: (§1)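 Step 1: compound in kinase buffer, 0.003–10 μM. Step 2: kinase reaction 1 h at room temperature. Step 4: TR-FRET read at 615/665 nm; IC50 calculated.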

EGFR wildtype (WT) = EGFR wildtype (WT) (Homo sapiens, UniProt P00533); assay: Biochemical EGFR kinase inhibition assay (Lance Ultra TR-FRET), wildtype
Chain of EGFR wildtype (WT) (P00533 25-1210): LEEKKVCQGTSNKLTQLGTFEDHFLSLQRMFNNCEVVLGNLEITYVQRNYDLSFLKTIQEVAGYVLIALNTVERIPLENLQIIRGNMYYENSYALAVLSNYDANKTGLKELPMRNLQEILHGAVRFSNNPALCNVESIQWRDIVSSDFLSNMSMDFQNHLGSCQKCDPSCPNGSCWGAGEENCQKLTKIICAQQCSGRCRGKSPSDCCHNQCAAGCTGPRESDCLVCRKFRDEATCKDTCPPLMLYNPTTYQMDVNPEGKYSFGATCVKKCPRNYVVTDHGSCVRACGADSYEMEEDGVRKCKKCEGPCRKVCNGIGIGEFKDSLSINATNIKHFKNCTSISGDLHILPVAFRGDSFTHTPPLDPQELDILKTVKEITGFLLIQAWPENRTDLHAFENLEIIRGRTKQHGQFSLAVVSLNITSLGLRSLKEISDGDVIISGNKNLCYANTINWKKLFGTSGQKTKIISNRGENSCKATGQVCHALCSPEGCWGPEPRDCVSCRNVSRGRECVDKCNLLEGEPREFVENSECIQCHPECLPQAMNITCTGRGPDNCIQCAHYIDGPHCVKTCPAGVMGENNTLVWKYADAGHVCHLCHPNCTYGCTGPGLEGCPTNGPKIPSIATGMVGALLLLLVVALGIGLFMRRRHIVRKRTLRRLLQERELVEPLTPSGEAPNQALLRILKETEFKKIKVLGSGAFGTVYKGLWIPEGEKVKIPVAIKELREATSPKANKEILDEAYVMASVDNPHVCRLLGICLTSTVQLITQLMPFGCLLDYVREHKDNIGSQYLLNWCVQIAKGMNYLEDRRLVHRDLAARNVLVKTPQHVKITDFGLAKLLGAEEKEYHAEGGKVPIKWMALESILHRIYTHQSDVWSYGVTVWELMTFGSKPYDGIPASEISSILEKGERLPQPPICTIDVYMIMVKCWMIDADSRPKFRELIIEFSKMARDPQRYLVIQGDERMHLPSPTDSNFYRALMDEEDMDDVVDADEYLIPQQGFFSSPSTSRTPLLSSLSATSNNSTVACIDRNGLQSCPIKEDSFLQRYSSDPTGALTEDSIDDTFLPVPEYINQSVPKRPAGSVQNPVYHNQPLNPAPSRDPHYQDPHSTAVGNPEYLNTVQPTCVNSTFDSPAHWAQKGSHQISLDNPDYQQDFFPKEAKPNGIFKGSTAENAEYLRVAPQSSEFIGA
Method in brief: as §1

EGFR Del19/C797S = EGFR Del19/C797S (Homo sapiens, UniProt P00533, C797S/DEL746-750); assay: Biochemical EGFR kinase inhibition assay (Lance Ultra TR-FRET), double mutant del19/C797S
Chain of EGFR Del19/C797S (P00533 with tags, fused parts or gaps DEL746-750/C797S): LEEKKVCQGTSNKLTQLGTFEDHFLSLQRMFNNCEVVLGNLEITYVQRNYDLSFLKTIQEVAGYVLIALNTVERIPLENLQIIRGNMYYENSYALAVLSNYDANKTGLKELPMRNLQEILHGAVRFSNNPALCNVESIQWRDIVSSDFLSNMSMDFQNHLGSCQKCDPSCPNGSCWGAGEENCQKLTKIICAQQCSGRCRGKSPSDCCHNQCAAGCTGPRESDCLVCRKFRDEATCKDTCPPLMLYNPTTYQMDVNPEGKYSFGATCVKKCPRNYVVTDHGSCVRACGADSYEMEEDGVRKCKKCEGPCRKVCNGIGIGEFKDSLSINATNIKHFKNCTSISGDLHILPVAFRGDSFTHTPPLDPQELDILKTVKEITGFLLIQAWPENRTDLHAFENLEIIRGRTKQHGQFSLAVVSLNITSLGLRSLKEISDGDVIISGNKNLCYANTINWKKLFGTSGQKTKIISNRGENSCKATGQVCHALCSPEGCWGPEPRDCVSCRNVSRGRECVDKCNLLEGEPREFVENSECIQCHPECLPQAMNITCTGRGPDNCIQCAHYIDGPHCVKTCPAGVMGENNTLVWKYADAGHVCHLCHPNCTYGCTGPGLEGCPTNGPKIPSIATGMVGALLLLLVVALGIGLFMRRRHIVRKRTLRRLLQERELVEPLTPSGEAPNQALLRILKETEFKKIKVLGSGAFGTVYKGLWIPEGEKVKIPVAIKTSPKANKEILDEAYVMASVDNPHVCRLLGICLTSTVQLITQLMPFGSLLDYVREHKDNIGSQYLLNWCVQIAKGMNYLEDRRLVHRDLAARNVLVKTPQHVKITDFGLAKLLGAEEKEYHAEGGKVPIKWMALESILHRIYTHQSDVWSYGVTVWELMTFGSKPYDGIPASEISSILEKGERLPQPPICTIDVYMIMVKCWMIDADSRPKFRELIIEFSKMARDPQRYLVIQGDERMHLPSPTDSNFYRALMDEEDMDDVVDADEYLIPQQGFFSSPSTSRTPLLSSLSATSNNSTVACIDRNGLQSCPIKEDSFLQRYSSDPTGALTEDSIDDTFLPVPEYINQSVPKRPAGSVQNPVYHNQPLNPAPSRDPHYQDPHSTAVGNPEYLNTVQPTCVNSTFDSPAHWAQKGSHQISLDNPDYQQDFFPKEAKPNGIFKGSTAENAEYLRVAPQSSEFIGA
Method in brief: as §1

EGFR L858R/T790M/C797S = EGFR L858R/T790M/C797S (Homo sapiens, UniProt P00533, C797S/L858R/T790M); assay: Biochemical EGFR kinase inhibition assay (Lance Ultra TR-FRET), triple mutant L858R/T790M/C797S
Method in brief: as §1

EGFR L858R/C797S = EGFR L858R/C797S (Homo sapiens, UniProt P00533, C797S/L858R); assay: Biochemical EGFR kinase inhibition assay (Lance Ultra TR-FRET), double mutant L858R/C797S
Chain of EGFR L858R/C797S (P00533 25-1210 C797S/L858R): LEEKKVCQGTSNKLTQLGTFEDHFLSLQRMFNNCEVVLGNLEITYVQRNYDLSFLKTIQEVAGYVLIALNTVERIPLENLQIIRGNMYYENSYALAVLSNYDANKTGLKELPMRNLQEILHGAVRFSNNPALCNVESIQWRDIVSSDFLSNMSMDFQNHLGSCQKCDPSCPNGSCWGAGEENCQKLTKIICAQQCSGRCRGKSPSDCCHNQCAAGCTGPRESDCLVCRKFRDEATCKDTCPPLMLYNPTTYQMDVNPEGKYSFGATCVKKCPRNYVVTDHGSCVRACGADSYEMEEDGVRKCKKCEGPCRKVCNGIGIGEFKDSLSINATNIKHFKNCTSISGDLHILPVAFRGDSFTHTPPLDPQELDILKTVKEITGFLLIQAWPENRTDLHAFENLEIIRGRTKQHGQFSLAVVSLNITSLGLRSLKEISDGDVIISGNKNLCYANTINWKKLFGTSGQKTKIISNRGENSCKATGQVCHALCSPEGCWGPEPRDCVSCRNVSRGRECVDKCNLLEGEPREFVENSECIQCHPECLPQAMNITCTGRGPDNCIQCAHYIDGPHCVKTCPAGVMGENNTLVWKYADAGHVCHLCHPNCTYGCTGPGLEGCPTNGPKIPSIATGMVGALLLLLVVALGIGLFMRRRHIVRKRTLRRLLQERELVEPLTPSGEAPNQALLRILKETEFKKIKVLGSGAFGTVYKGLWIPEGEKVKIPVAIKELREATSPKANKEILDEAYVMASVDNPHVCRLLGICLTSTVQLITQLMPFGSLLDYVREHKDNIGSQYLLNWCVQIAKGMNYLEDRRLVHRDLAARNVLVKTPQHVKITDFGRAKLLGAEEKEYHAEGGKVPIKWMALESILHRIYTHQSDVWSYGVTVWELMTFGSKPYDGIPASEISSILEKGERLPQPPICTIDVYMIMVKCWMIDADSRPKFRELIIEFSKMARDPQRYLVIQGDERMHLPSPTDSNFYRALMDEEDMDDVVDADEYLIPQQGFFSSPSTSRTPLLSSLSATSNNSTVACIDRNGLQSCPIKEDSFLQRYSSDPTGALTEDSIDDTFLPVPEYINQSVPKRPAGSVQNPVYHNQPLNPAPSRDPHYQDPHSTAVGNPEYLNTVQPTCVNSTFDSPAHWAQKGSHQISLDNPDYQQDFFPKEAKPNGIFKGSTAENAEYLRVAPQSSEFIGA
Method in brief: as §1

[1] = ATP at Km, read-out: IC50 Del19/T790M/C797S (nM), Km ATP
[2] = IC50 Del19/T790M/C797S (nM), 100 μM ATP
[3] = ATP at Km, read-out: IC50 WT (nM), Km ATP
[4] = ATP at Km, read-out: IC50 Del19/C797S (nM), Km ATP
[5] = IC50 Del19/C797S (nM), 100 μM ATP
[6] = ATP at Km, read-out: IC50 L858R/T790M/C797S (nM), Km ATP
[7] = IC50 L858R/T790M/C797S (nM), 100 μM ATP
[8] = ATP at Km, read-out: IC50 L858R/C797S (nM), Km ATP
[9] = IC50 L858R/C797S (nM), 100 μM ATP

Chain of EGFR Del19/T790M/C797S (P00533 with tags, fused parts or gaps DEL746-750/T790M/C797S): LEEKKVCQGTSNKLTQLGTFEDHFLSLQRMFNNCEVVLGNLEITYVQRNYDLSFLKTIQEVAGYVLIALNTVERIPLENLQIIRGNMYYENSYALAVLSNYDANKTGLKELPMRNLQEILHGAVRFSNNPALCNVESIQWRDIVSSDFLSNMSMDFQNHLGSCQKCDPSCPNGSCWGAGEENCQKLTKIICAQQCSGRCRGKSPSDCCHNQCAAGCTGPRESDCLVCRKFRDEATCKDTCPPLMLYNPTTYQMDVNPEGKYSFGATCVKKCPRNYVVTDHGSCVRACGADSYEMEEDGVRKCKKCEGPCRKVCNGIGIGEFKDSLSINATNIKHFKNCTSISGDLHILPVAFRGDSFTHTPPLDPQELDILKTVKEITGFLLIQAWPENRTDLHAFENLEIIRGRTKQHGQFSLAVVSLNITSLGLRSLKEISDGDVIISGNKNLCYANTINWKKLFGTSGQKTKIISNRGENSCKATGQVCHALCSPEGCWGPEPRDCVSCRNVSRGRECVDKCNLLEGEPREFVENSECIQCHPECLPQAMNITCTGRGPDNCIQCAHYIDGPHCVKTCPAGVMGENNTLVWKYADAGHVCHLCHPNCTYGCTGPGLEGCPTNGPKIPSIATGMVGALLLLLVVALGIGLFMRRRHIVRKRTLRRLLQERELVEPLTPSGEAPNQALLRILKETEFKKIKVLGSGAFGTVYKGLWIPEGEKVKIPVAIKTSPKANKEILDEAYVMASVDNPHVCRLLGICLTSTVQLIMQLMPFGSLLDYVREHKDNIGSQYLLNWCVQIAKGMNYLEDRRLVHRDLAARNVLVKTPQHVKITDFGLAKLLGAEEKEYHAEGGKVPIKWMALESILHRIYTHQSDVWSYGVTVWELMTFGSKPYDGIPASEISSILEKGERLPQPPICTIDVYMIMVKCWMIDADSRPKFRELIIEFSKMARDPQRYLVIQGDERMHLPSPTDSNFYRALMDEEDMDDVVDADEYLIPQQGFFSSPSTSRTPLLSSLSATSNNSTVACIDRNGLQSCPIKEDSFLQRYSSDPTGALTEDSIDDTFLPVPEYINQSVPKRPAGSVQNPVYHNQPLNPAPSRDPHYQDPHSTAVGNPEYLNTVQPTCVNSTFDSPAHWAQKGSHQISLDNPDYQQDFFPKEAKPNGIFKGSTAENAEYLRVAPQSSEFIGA

SMILES	IC50 (EGFR Del19/T790M/C797S; [1]) [nM]	IC50 (EGFR Del19/T790M/C797S; [2]) [nM]	IC50 (EGFR wildtype (WT); [3]) [nM]	IC50 (EGFR wildtype (WT); IC50 WT (nM), 100 μM ATP) [nM]	IC50 (EGFR Del19/C797S; [4]) [nM]	IC50 (EGFR Del19/C797S; [5]) [nM]	IC50 (EGFR L858R/T790M/C797S; [6]) [nM]	IC50 (EGFR L858R/T790M/C797S; [7]) [nM]	IC50 (EGFR L858R/C797S; [8]) [nM]	IC50 (EGFR L858R/C797S; [9]) [nM]
CN(C)Cc1ccc(C#Cc2cnc(Nc3ccnc(-c4cnn(S(=O)(=O)C5CC5)c4)n3)cc2N2CCC(C)(CO)CC2)cn1 [Example 278, (1-(2-((2-(1-(Cyclopropylsulfonyl)-1H-pyrazol-4-yl)pyrimidin-4-yl)amino)-5-((6-((dimethylamino)methyl)pyridin-3-yl)ethynyl)pyridin-4-yl)-4-methylpiperidin-4-yl)methanol]	0.3	0.6	0.7	108	0.2	0.6	0.1	0.3	0.5	0.5
CN1CCN(Cc2ccc(C#Cc3cnc(Nc4ccnc(-c5cnn(S(=O)(=O)C6CC6)c5)n4)cc3N3CCC(C)(CO)CC3)cn2)CC1 [Example 279, (1-(2-((2-(1-(Cyclopropylsulfonyl)-1H-pyrazol-4-yl)pyrimidin-4-yl)amino)-5-((6-((4-methylpiperazin-1-yl)methyl)pyridin-3-yl)ethynyl)pyridin-4-yl)-4-methylpiperidin-4-yl)methanol]	0.6	0.7	0.6	111	0.2	0.6	0.1	0.5	0.6	0.6
CC1(O)CCN(c2cc(Nc3ccnc(-c4cnn(S(=O)(=O)C5CC5)c4)n3)ncc2C#Cc2cccnc2)CC1 [Example 280, 1-(2-((2-(1-(Cyclopropylsulfonyl)-1H-pyrazol-4-yl)pyrimidin-4-yl)amino)-5-(pyridin-3-ylethynyl)pyridin-4-yl)-4-methylpiperidin-4-ol]	0.5	0.3	3.5	> 10000	0.3	0.5	0.4	0.6	0.6	6.3
CC1(CO)CCN(c2cc(Nc3ccnc(-c4cnn(S(=O)(=O)C5CC5)c4)n3)ncc2C#CCCN2CCOCC2)CC1 [Example 285, (1-(2-((2-(1-(Cyclopropylsulfonyl)-1H-pyrazol-4-yl)pyrimidin-4-yl)amino)-5-(4-morpholinobut-1-yn-1-yl)pyridin-4-yl)-4-methylpiperidin-4-yl)methanol]	0.8	1	2.5	1250	0.4	1.1	0.4	0.6	0.1	1.3
CC1(CO)CCN(c2cc(Nc3ccnc(-c4cnn(S(=O)(=O)C5CC5)c4)n3)ncc2C#CCC2(O)COC2)CC1 [Example 286, 3-(3-(6-((2-(1-(Cyclopropylsulfonyl)-1H-pyrazol-4-yl)pyrimidin-4-yl)amino)-4-(4-(hydroxymethyl)-4-methylpiperidin-1-yl)pyridin-3-yl)prop-2-yn-1-yl)oxetan-3-ol]		0.1		4300		2.2		0.4		13.5
CC1(CO)CCN(c2cc(Nc3ccnc(-c4cnn(S(=O)(=O)C5CC5)c4)n3)ncc2C#CCN2CCS(=O)(=O)CC2)CC1 [Example 289, 4-(3-(6-((2-(1-(Cyclopropylsulfonyl)-1H-pyrazol-4-yl)pyrimidin-4-yl)amino)-4-(4-(hydroxymethyl)-4-methylpiperidin-1-yl)pyridin-3-yl)prop-2-yn-1-yl)thiomorpholine 1,1-dioxide]		0.2		8440		3		0.9		23.1

More lines, in order of falling IC50 (EGFR Del19/T790M/C797S; [2]), values ahead:

IC50 (EGFR Del19/T790M/C797S; [1]) [nM]	IC50 (EGFR Del19/T790M/C797S; [2]) [nM]	IC50 (EGFR wildtype (WT); [3]) [nM]	IC50 (EGFR wildtype (WT); IC50 WT (nM), 100 μM ATP) [nM]	IC50 (EGFR Del19/C797S; [4]) [nM]	IC50 (EGFR Del19/C797S; [5]) [nM]	IC50 (EGFR L858R/T790M/C797S; [6]) [nM]	IC50 (EGFR L858R/T790M/C797S; [7]) [nM]	IC50 (EGFR L858R/C797S; [8]) [nM]	IC50 (EGFR L858R/C797S; [9]) [nM]	SMILES
10.2	82.1	192	> 10000	17	88.5		22	6.3	287	COC1(C)CCN(c2cc(Nc3ccnc(-c4cnn(S(=O)(=O)C5CC5)c4)n3)ncc2C#Cc2cccnc2)CC1 [Example 281, 2-(1-(Cyclopropylsulfonyl)-1H-pyrazol-4-yl)-N-(4-(4-methoxy-4-methylpiperidin-1-yl)-5-(pyridin-3-ylethynyl)pyridin-2-yl)pyrimidin-4-amine]
5.5	23.8	50.7	> 10000	8.3	28.6		7.1	4.2	39.2	O=S(=O)(C1CC1)n1cc(-c2nccc(Nc3cc(N4CCC5(CCCO5)CC4)c(C#Cc4cccnc4)cn3)n2)cn1 [Example 282, 2-(1-(Cyclopropylsulfonyl)-1H-pyrazol-4-yl)-N-(5-(pyridin-3-ylethynyl)-4-(1-oxa-8-azaspiro[4.5]decan-8-yl)pyridin-2-yl)pyrimidin-4-amine]
2	9.5	16.2	> 10000	3.1	7.9		3	1.9	11.2	O=S(=O)(C1CC1)n1cc(-c2nccc(Nc3cc(N4CCC5(CCO5)CC4)c(C#Cc4cccnc4)cn3)n2)cn1 [Example 283, 2-(1-(Cyclopropylsulfonyl)-1H-pyrazol-4-yl)-N-(5-(pyridin-3-ylethynyl)-4-(1-oxa-7-azaspiro[3.5]nonan-7-yl)pyridin-2-yl)pyrimidin-4-amine]
	5.7		> 10000		26.2		8.6		> 10000	CC1(CO)CCN(c2cc(Nc3ccnc(-c4cnn(S(=O)(=O)C5CC5)c4)n3)ncc2C#Cc2cc(C(F)(F)F)n[nH]2)CC1 [Example 290, (1-(2-((2-(1-(Cyclopropylsulfonyl)-1H-pyrazol-4-yl)pyrimidin-4-yl)amino)-5-((3-(trifluoromethyl)-1H-pyrazol-5-yl)ethynyl)pyridin-4-yl)-4-methylpiperidin-4-yl)methanol]
1.1	4.4	12.6	7270	2.8	6.8		1.7	1.7	15.9	CC(C)(O)CC#Cc1cnc(Nc2ccnc(-c3cnn(S(=O)(=O)C4CC4)c3)n2)cc1N1CCC(C)(CO)CC1 [Example 284, 5-(6-((2-(1-(Cyclopropylsulfonyl)-1H-pyrazol-4-yl)pyrimidin-4-yl)amino)-4-(4-(hydroxymethyl)-4-methylpiperidin-1-yl)pyridin-3-yl)-2-methylpent-4-yn-2-ol]
0.6	0.8	11.4	> 10000	1.4	3.3	0.3	1.8	2.5	33.7	C=CC#Cc1cnc(Nc2ccnc(-c3cnn(S(=O)(=O)C4CC4)c3)n2)cc1N1CCC(C)(CO)CC1 [Example 277, (1-(5-(But-3-en-1-yn-1-yl)-2-((2-(1-(cyclopropylsulfonyl)-1H-pyrazol-4-yl)pyrimidin-4-yl)amino)pyridin-4-yl)-4-methylpiperidin-4-yl)methanol]
0.3	0.7	7.5	5290	0.8	1.3	0.1	0.5	1.5	16.5	CC1(CO)CCN(c2cc(Nc3ccnc(-c4cnn(S(=O)(=O)C5CC5)c4)n3)ncc2C#CCCF)CC1 [Example 276, (1-(2-((2-(1-(Cyclopropylsulfonyl)-1H-pyrazol-4-yl)pyrimidin-4-yl)amino)-5-(4-fluorobut-1-yn-1-yl)pyridin-4-yl)-4-methylpiperidin-4-yl)methanol]
	0.2		7820		3.6		0.2		21.6	CC1(CO)CCN(c2cc(Nc3ccnc(-c4cnn(S(=O)(=O)C5CC5)c4)n3)ncc2C#CCNC(=O)C(F)(F)F)CC1 [Example 288, N-(3-(6-((2-(1-(Cyclopropylsulfonyl)-1H-pyrazol-4-yl)pyrimidin-4-yl)amino)-4-(4-(hydroxymethyl)-4-methylpiperidin-1-yl)pyridin-3-yl)prop-2-yn-1-yl)-2,2,2-trifluoroacetamide]
	0.1		3190		1.6		0.3		8.9	CC(O)CC#Cc1cnc(Nc2ccnc(-c3cnn(S(=O)(=O)C4CC4)c3)n2)cc1N1CCC(C)(CO)CC1 (stereo not shown) [Example 287, 5-(6-((2-(1-(Cyclopropylsulfonyl)-1H-pyrazol-4-yl)pyrimidin-4-yl)amino)-4-(4-(hydroxymethyl)-4-methylpiperidin-1-yl)pyridin-3-yl)pent-4-yn-2-ol]
